Measurements as given in patent publication US20230295152A1 (SENDA BIOSCIENCES, INC., priority 2019, published 2023).
Like-named read-outs stand apart in the source and are kept apart here.

Experiments:
AHR = biological target: T1, AHR (Homo sapiens, UniProt P35869); assay: DRE-Luciferase Reporter Assay, HepG2 AhR-Lucia reporter cells; type: cell-based; details: with AHR activating ligand at EC50, read-out: HepG2-Luc IC50
T1 construct: other cell line with a DRE-luciferase reporter stably transfected; endogenous in cells; host or cells: HepG2 AhR-Lucia reporter cells
T1 sequence (P35869 11-848): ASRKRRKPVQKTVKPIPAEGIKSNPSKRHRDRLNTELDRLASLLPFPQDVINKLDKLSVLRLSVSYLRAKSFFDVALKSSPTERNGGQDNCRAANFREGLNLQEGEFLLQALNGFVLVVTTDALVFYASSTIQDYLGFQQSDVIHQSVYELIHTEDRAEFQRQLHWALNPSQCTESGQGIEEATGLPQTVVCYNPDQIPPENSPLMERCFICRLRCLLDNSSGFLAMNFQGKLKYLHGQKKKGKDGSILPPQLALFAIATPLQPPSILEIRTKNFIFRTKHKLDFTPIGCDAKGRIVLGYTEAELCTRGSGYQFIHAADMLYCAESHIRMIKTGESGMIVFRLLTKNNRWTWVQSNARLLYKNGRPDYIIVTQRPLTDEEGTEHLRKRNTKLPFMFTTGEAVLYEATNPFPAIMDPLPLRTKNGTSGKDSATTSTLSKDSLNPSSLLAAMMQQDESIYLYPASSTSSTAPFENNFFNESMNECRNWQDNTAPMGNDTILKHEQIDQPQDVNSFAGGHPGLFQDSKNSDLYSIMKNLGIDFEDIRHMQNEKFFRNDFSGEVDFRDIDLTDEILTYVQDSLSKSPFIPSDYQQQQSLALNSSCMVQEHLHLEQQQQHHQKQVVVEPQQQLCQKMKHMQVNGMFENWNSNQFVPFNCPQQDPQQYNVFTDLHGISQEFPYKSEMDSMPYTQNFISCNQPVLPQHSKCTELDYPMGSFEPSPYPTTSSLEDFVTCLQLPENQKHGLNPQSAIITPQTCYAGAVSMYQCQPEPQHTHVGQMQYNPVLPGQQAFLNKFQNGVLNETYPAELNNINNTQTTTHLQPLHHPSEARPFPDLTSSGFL
Summary of the method: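 DRE-luciferase reporter cells (e.g. HepG2 AhR-Lucia, 20000 cells) treated with antagonist log dilutions from 100 uM, then an AHR agonist (e.g. TCDD, kynurenine, ITE, FICZ) at its EC50 added after 1 hr. Secreted luciferase measured after 24 or 48 h (QUANTI-Luc); IC50 = concentration halving luciferase activity.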

[1] = Hepatocyte Stability Assay, human; type: in vitro ADME; details: human, plated hepatocytes, plated hepatocyte
[2] = Hepatocyte Stability Assay, rat; type: in vitro ADME; details: rat hepatocytes; note: tested at 1 µM
Description: • Preparation of working solutions: 10 mM stock solutions of test compound and positive control were prepared in DMSO. In separate conical tubes, the 10 mM solution of test compound and the positive control were diluted to 100 μM by combining 198 μL of 50% acetonitrile/50% water and 2 μL of 10 mM stock.
Preparation of Hepatocytes: Incubation medium (William's E Medium supplemented with GlutaMAX) and hepatocyte thawing medium were placed in a 37° C. water bath and allowed warming for at least 15 minutes prior to use. A vial of cryopreserved hepatocytes was transferred from storage, ensuring that vials remained at cryogenic temperatures until thawing process ensued. Cells were thawed by placing the vial in a 37° C. water bath and gently shaking the vials for 2 minutes. After thawing was completed, vial was sprayed with 70% ethanol and transferred to a biosafety cabinet. Wide-bore pipette tip were used to transfer hepatocytes into 50 mL conical tube containing thawing medium. The 50 mL conical tube were placed into a centrifuge and spun at 100 g for 10 minutes. Upon completion of spin, thawing medium was aspirated and resuspended hepatocytes in enough incubation medium to yield ˜1.5×10^6 cells/mL. Using an AO/PI Staining, cells were counted and the viable cell density was determined. Cells with poor viability (<75% viability) were determined to be not acceptable for use. Cells were diluted with incubation medium to a working cell density of 0.5×10^6 viable cells/mL.
Procedure for Stability Determination: 198 μL of hepatocytes were pipetted into each wells of a 96-well non-coated plate. The plate was placed in the incubator to allow the hepatocytes to warm for 10 minutes. 2 μL of the 100 μM test compound or positive control solutions were pipetted into respective wells of the 96-well non-coated plate to start the reaction. The plate was returned to the incubator for the designed time points. Well contents was transferred in 25 μL aliquots at time points of 0, 15, 30, 60, 90 and 120 minutes. The aliquots were then mixed with 6 volumes (150 μL) of acetonitrile containing internal standard, IS (100 nM alprazolam, 200 nM caffeine and 100 nM tolbutamide) to terminate the reaction. The mixture was vortex for 5 minutes. Samples were centrifuged for 45 minutes at 3,220 g. An aliquot of 100 μL of the supernatant was diluted by 100 μL ultra-pure water, and the mixture was used for LC/MS/MS analysis. All incubations were performed in duplicate.
Data Analysis: All calculations were carried out using Microsoft Excel. Peak areas were determined from extracted ion chromatograms. In vitro half-life (t1/2) of parent compound was determined by regression analysis of the percent parent disappearance vs. time curve.
The in vitro half-life (in vitro t1/2) was determined from the slope value:
Conversion of the in vitro t1/2 (in min) into the in vitro intrinsic clearance (in vitro CLint, in μL/min/1×10^6 cells) was done using the following equation (mean of duplicate determinations):
V=incubation volume(0.2 mL);
N=number of hepatocytes per well(0.1×10^6 cells).
“+++” indicates a CLint value less than 20 mL/min/Kg, “++” indicates a CLint between 20 and 50 mL/min/Kg, and “+” indicates an CLint above 50 mL/min/Kg.

[3] = Alliance assay, read-out: Human hepatocyte clearance Plated hepatocyte Alliance assay

| Structure (SMILES) | IC50 (AHR) [nM] | CLint scaled [1, 3] [mL/min/kg] | Rat hepatocyte clearance [2] | CLint scaled ([1]; Pharmaron assay, read-out: Human hepatocyte clearance Plated hepatocyte Pharmaron assay) [mL/min/kg] |
| --- | --- | --- | --- | --- |
| O=c1c2cc(-c3ccc(C(F)(F)F)nc3)nc(-c3cccnc3)c2ncn1C[C@H](O)C(F)(F)F [Compound 57] | < 100 | < 20 | – | – |
| C[C@@H](n1cnc2c(-c3cnn(C)c3)nc(-c3ccc(Cl)cc3)cc2c1=O)C(C)(C)O [Compound 31] | < 100 | – | ++ (“++” indicates a CLint between 20 and 50 mL/min/Kg) | – |
| C[C@@H](CO)n1cnc2c(-c3cccc(F)c3)nc(-c3ccc(C(F)(F)F)cn3)cc2c1=O [Compound 47, (S)-8-(3-fluorophenyl)-3-(1-hydroxypropan-2-yl)-6-(5-(trifluoromethyl)pyridin-2-yl)pyrido[3,4-d]pyrimidin-4(3H)-one] | < 100 | – | +++ (“+++” indicates a CLint value less than 20 mL/min/Kg) | – |
| C[C@@H](CO)n1cnc2c(-n3ccnc3)nc(-c3ccc(OC(F)(F)F)cc3)cc2c1=O [Compound 44, (S)-3-(1-hydroxypropan-2-yl)-8-(1H-imidazol-1-yl)-6-(4-(trifluoromethoxy)-phenyl)pyrido[3,4-d]pyrimidin-4(3H)-one] | < 100 | – | +++ (“+++” indicates a CLint value less than 20 mL/min/Kg) | – |
| C[C@@H](CO)n1cnc2c(-c3cccnc3)nc(-c3ccc(C(F)(F)F)cc3)cc2c1=O [Compound 23] | < 100 | – | – | < 20 |
| C[C@@H](CO)n1cnc2c(-c3cncc(F)c3)nc(-c3ccc(OC(F)(F)F)cc3)cc2c1=O [Compound 1, (S)-8-(5-fluoropyridin-3-yl)-3-(1-hydroxypropan-2-yl)-6-(4-(trifluoromethoxy)phenyl)pyrido[3,4-d]pyrimidin-4(3H)-one] | < 100 | – | ++ (“++” indicates a CLint between 20 and 50 mL/min/Kg) | – |
| C[C@@H](CO)n1cnc2c(-c3cnn(C)c3)nc(-c3ccc(C4CC4)nc3)cc2c1=O [Compound 83] | < 100 | < 20 | – | – |
| C[C@@H](CO)n1cnc2c(-c3cccc(F)c3)nc(-c3ccc(C(F)(F)F)nc3)cc2c1=O [Compound 8] | < 100 | – | ++ (“++” indicates a CLint between 20 and 50 mL/min/Kg) | – |
| C[C@@H](n1cnc2c(-c3cccnc3)nc(-c3ccc(Cl)cc3)cc2c1=O)C(C)(C)O [Compound 33] | < 100 | – | ++ (“++” indicates a CLint between 20 and 50 mL/min/Kg) | – |
| Cn1cc(-c2nc(-c3ccc(C(F)(F)F)cn3)cc3c(=O)n(CC(C)(C)O)cnc23)cn1 [Compound 103, 3-(2-hydroxy-2-methylpropyl)-8-(1-methyl-1H-pyrazol-4-yl)-6-(5-(trifluoromethyl)pyridin-2-yl)pyrido[3,4-d]pyrimidin-4(3H)-one] | < 100 | – | ++ (“++” indicates a CLint between 20 and 50 mL/min/Kg) | – |
| C[C@@H](O)Cn1cnc2c(-c3cccnc3)nc(-c3ccc(C(F)(F)F)cn3)cc2c1=O [Compound 144, (R)-3-(2-hydroxypropyl)-8-(pyridin-3-yl)-6-(5-(trifluoromethyl)pyridin-2-yl)pyrido[3,4-d]pyrimidin-4(3H)-one] | < 100 | – | – | – |
| O=c1c2cc(-c3ccc(C(F)(F)F)cn3)nc(-c3cccnc3)c2ncn1C[C@H](O)C(F)(F)F [Compound 104, (S)-8-(pyridin-3-yl)-3-(3,3,3-trifluoro-2-hydroxypropyl)-6-(5-(trifluoromethyl)pyridin-2-yl)pyrido[3,4-d]pyrimidin-4(3H)-one] | < 100 | – | – | – |
| Cn1cc(-c2nc(-c3ccc(C(F)(F)F)nc3)cc3c(=O)n([C@H]4COC[C@H]4O)cnc23)cn1 [Compound 88] | < 100 | – | – | – |
| C[C@H](O)Cn1cnc2c(-c3cccnc3)nc(-c3ccc(C(F)(F)F)cn3)cc2c1=O [Compound 143, (S)-3-(2-hydroxypropyl)-8-(pyridin-3-yl)-6-(5-(trifluoromethyl)pyridin-2-yl)pyrido[3,4-d]pyrimidin-4(3H)-one] | < 100 | – | – | – |
| Cc1nc(-c2cc3c(=O)n([C@@H](C)CO)cnc3c(-c3cccnc3)n2)cs1 [Compound 183, (S)-3-(1-hydroxypropan-2-yl)-6-(2-methylthiazol-4-yl)-8-(pyridin-3-yl)pyrido[3,4-d]pyrimidin-4(3H)-one] | > 500 | – | – | – |
| O=c1c2cc(-c3ccc(C(F)(F)F)cn3)nc(-c3cccnc3)c2ncn1[C@H]1COC[C@@H]1O [Compound 139, 3-((3S,4R)-4-hydroxytetrahydrofuran-3-yl)-8-(pyridin-3-yl)-6-(5-(trifluoromethyl)pyridin-2-yl)pyrido[3,4-d]pyrimidin-4(3H)-one] | < 100 | – | – | – |
| C[C@@H](O)Cn1cnc2c(-c3cccnc3)nc(-c3ccc(C(F)(F)F)nc3)cc2c1=O [Compound 112, (R)-3-(2-hydroxypropyl)-8-(pyridin-3-yl)-6-(6-(trifluoromethyl)pyridin-3-yl)pyrido[3,4-d]pyrimidin-4(3H)-one] | < 100 | – | – | – |
| Cn1cc(-c2nc(-c3ccc(C4CC4)nc3)cc3c(=O)n(C[C@H](O)C(F)(F)F)cnc23)cn1 [Compound 136, (S)-6-(6-cyclopropylpyridin-3-yl)-8-(1-methyl-1H-pyrazol-4-yl)-3-(3,3,3-trifluoro-2-hydroxypropyl)pyrido[3,4-d]pyrimidin-4(3H)-one] | < 100 | – | – | – |
| C[C@@H](CO)n1cnc2c(-c3cnn(C)c3)nc(-c3ccc(Cl)cc3)cc2c1=O [Compound 27] | < 100 | – | +++ (“+++” indicates a CLint value less than 20 mL/min/Kg) | – |
| O=c1c2cc(-c3ccc(OC(F)(F)F)cc3)nc(-c3cccnc3)c2ncn1C[C@H](O)C(F)(F)F [Compound 124, (S)-8-(pyridin-3-yl)-3-(3,3,3-trifluoro-2-hydroxypropyl)-6-(4-(trifluoromethoxy)phenyl)pyrido[3,4-d]pyrimidin-4(3H)-one] | < 100 | – | – | – |
| Cn1cc(-c2nc(-c3ccc(C(F)(F)F)nc3)cc3c(=O)n([C@H]4COC[C@@H]4O)cnc23)cn1 [Compound 114, 3-((3S,4R)-4-hydroxytetrahydrofuran-3-yl)-8-(1-methyl-1H-pyrazol-4-yl)-6-(6-(trifluoromethyl)pyridin-3-yl)pyrido[3,4-d]pyrimidin-4(3H)-one] | < 100 | – | – | – |
| Cc1ncc(-c2cc3c(=O)n([C@@H](C)CO)cnc3c(-c3cccnc3)n2)s1 [Compound 89] | < 100 | – | – | – |
